Results taken from patent US8877800B2, “Kappa-opiate agonists for the treatment of diarrhea-predominant irritable bowel syndrome” (Tioga Pharmaceuticals, Inc., priority 2007, dated 2014).

Key:
patients with IBS = assay: Example 1: randomized, double-blind, placebo controlled 4-week on-demand asimadoline study in participants with IBS; details: for Δ Pain intensity (mean ± SE): VAS, 2 hours after first dose
[1] = test system: gastric and colon distention; details: animal models; cited from earlier work
delta opiate receptor = delta opiate receptor (Homo sapiens, UniProt P41143); assay: selectivity: IC50 at delta opiate receptor relative to kappa; format: binding; details: ratio kappa:mu:delta
Chain of delta opiate receptor (P41143 whole entry): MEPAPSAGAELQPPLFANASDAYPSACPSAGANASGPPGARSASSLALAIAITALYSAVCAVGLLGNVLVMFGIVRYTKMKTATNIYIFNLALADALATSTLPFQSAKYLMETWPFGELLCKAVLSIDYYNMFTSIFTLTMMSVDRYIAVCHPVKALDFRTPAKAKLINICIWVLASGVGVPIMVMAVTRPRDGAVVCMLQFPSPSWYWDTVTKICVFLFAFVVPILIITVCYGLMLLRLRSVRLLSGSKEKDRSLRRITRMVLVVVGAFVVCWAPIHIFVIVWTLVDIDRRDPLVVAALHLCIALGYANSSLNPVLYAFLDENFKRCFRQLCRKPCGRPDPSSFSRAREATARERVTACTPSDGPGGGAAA

kappa-opiate receptor = kappa-opiate receptor (Homo sapiens, UniProt P41145); details: read-out: affinity for the kappa-opiate receptor, IC50; cited from earlier work
Chain of kappa-opiate receptor (P41145 whole entry): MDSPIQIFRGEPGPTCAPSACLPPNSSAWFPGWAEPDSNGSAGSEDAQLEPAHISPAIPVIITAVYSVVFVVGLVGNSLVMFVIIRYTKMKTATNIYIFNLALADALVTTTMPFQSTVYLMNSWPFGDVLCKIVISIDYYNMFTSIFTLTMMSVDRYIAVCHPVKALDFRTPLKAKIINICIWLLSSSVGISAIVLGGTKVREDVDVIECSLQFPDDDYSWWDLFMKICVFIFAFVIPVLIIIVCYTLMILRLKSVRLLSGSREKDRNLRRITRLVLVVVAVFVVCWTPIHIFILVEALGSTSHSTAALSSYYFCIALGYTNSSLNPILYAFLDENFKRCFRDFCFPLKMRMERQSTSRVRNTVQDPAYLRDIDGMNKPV

[2] = cited from earlier work
[3] = cited from earlier work; remark: listed apart in the source
mu opiate receptor = mu opiate receptor (Homo sapiens, UniProt P35372); assay: selectivity: IC50 at mu opiate receptor relative to kappa; format: binding; details: ratio kappa:mu:delta
Chain of mu opiate receptor (P35372 whole entry): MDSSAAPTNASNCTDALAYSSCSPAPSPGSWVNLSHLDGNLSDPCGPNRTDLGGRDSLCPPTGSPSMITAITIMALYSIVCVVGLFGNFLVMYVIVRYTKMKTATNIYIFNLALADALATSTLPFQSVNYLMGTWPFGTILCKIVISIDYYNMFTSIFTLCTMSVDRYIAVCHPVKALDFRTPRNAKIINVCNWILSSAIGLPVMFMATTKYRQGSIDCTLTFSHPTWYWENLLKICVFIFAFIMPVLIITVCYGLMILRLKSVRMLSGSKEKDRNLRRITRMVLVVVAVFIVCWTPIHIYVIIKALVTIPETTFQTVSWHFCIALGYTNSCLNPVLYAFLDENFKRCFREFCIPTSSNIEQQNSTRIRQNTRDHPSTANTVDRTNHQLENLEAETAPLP

[4] = test system: IBS-D, IBS-C and IBS-A patients; assay: Example 2: 12-week randomized, double-blind, dose-ranging, placebo-controlled fixed-dose asimadoline study in IBS; format: in vivo, human; details: for urgency: all three months; for improvement over placebo in percent number of months with adequate relief / percent number of months with adequate relief of IBS pain or discomfort: all IBS subjects with moderate or severe pain
Description: Diarrhea-predominant (IBS-D), constipation-predominant (IBS-C), and alternating IBS (IBS-A) patients were recruited from 120 sites in the United States. Patients underwent a two week screening period to ensure adequate symptoms and compliance with the interactive voice response system (IVRS) data collection system, followed by twelve weeks of treatment and a four week follow-up period. Patients received identical appearing placebo, 0.15 mg, 0.5 mg or 1.0 mg asimadoline tablets b.i.d. for the 12 week treatment period. During screening, treatment and follow-up patients entered data every day on the IVRS.
The primary endpoint was the number of months a patient was a responder for adequate relief, where the primary measure was the question, “In the past 7 days have you had adequate relief of your IBS pain or discomfort?” This measure was asked once every 7 days and a monthly responder replied “yes” at least 3 weeks per month. Numerous secondary endpoints, abdominal pain or discomfort, stool frequency, urgency, bloating, stool consistency, adequate relief of IBS symptoms and straining were also collected. Additionally, adverse clinical events, laboratory test data and electrocardiograms (ECGs) were collected.
Of the 596 subjects who were randomized, 344 reported baseline pain scores of 2.0 or higher. The pain score was a self reported score on a scale of 0-3, where 0=no pain, 1=mild pain, 2=moderate pain and 3=severe pain Subjects having scores of 2.0 or higher were categorized as having moderate or severe pain. Of the 344 moderate or severe pain subjects, 104 were classified as having IBS-D, 114 IBS-A and 126 IBS-C.

[5] = moisture, heat, aerial oxygen, light; cited from earlier work
IBS patients = details: Bardhan et al., Aliment Pharmacol Ther 2000; 14:23-34; cited from earlier work

## CN(C(=O)C(c1ccccc1)c1ccccc1)[C@H](CN1CC[C@H](O)C1)c1ccccc1.Cl [Asimadoline, N-[(1S)-2-[(3S)-3-hydroxypyrrolidin-1-yl]-1-phenylethyl]-N-methyl-2,2-diphenylacetamide, hydrochloride]
Patients with IBS; IBS-A
  Proportion of days with adequate relief of symptoms (mean ± SE): 0.46 ± 0.08
  change in bowel movements per day, corrected for placebo change from baseline: increase
Patients with IBS; IBS-A (alternators), p=0.003
  delta pain intensity scores relative to placebo: significantly better than placebo
Patients with IBS; IBS-A, unadjusted p = 0.003 vs placebo
  Δ Pain intensity (mean ± SE): 37.8 ± 3.7 mm
Patients with IBS; IBS-A, on-demand, 4 weeks
  Δ mean # stools, treatment compared to baseline: 0.0 ± 0.1
  Δ mean ease of passage, treatment compared to baseline: 0.0 ± 0.1
  Δ mean stool form, treatment compared to baseline: 0.2 ± 0.2
Patients with IBS; IBS-C
  Proportion of days with adequate relief of symptoms (mean ± SE): 0.11 ± 0.07
  change in bowel movements per day, corrected for placebo change from baseline: increase
  Δ Pain intensity (mean ± SE): 23.8 ± 4.0 mm
Patients with IBS; IBS-C, on-demand, 4 weeks
  Δ mean ease of passage, treatment compared to baseline: −0.1 ± 0.1
  Δ mean stool form, treatment compared to baseline: 0.0 ± 0.2
Patients with IBS; IBS-D
  Proportion of days with adequate relief of symptoms (mean ± SE): 0.45 ± 0.08
  change in bowel movements per day, corrected for placebo change from baseline: decrease
  Δ Pain intensity (mean ± SE): 25.0 ± 2.9 mm
Patients with IBS; IBS-D, on-demand, 4 weeks
  Δ mean # stools, treatment compared to baseline: −0.3 ± 0.1
  Δ mean ease of passage, treatment compared to baseline: −0.1 ± 0.1
  Δ mean stool form, treatment compared to baseline: −0.1 ± 0.2
Patients with IBS; on-demand, 4 weeks
  Adverse events: Body as a whole: 15.00%
  Adverse events: Central and peripheral nervous system: 48.33%
  Adverse events: Gastrointestinal: 16.67%
  Adverse events: Genitourinary: 1.67%
  Adverse events: Musculoskeletal: 6.67%
  Adverse events: Psychiatric: 15.00%
  Adverse events: Respiratory: 33.33%
  serious clinical or laboratory adverse events: no serious clinical or laboratory adverse events
  tolerability: well tolerated
[1]
  sensation responses to gastric and colon distention: reduce sensation responses
Delta opiate receptor
  ratio of IC50 values, delta relative to kappa (kappa = 1): ~498
kappa-opiate receptor
  IC50: 1.2 nM
[2]; fasting subjects
  bioavailability: 50%
[2]; food interaction studies
  effect of eating on bioavailability: eating does not substantially impact bioavailability
[2]; in vivo
  half-life: 2 to 3 h
  penetration of the blood-brain barrier: poor penetration of the blood-brain barrier
[3]; ethanol
  solubility in ethanol: 5400 µg/mL
[3]; water
  solubility in water: 11600 µg/mL
Mu opiate receptor
  ratio of IC50 values, mu relative to kappa (kappa = 1): ~501
[4]; 0.15 mg b.i.d.
  Adverse events: Abdominal pain: 5.4%
  Adverse events: Constipation: 12.8%
  Adverse events: Diarrhea: 13.4%
  Adverse events: Dizziness: 2.7%
  Adverse events: Headache: 9.4%
  Adverse events: Nausea: 5.4%
  Adverse events: Sinusitis: 4.7%
[4]; 0.5 mg b.i.d.
  Adverse events: Abdominal pain: 4.6%
  Adverse events: Constipation: 10.5%
  Adverse events: Diarrhea: 5.9%
  Adverse events: Dizziness: 1.3%
  Adverse events: Headache: 4.6%
  Adverse events: Nausea: 8.6%
  Adverse events: Sinusitis: 2.6%
  improvement over placebo in percent number of months with adequate relief: 17%
[4]; 1.0 mg b.i.d.
  Adverse events: Abdominal pain: 4.2%
  Adverse events: Constipation: 7.6%
  Adverse events: Diarrhea: 11.1%
  Adverse events: Dizziness: 2.1%
  Adverse events: Headache: 5.6%
  Adverse events: Nausea: 2.8%
  Adverse events: Sinusitis: 6.3%
  improvement over placebo in percent number of months with adequate relief: 17%
[4]; 0.15, 0.5 or 1.0 mg b.i.d., 12 weeks
  serious clinical or laboratory adverse events related to the treatment: No serious clinical or laboratory adverse events
[4]; IBS-A subjects at these dosages
  pain scores: No statistically significant improvement
[4]; IBS-A, moderate or severe pain, 1.0 mg b.i.d., placebo 27%, p=0.022
  percent months with adequate relief of IBS pain or discomfort: 50%
[4]; IBS-A, moderate or severe pain, 1.0 mg b.i.d., placebo 30%, p=0.032
  proportion of months with adequate relief of overall IBS symptoms: 57%
[4]; IBS-A, 1.0 mg b.i.d., first month, placebo 19%, p=0.017
  percentage of monthly responders (adequate relief of pain or discomfort): 46%
[4]; IBS-C subjects with moderate or severe pain
  abdominal pain or discomfort associated with IBS: no statistically significant improvement
[4]; IBS-D and IBS-C subjects, any of the three dosages
  stool consistency: no statistically significant changes
[4]; IBS-D, baseline pain scores ≧2.0, 1.0 mg, second month
  bloating: statistically significant reductions
[4]; IBS-D, moderate or severe pain, 0.5 mg b.i.d., placebo 20%, p=0.011
  percent months with adequate relief of IBS pain or discomfort: 47%
[4]; IBS-D, moderate or severe pain, 0.5 mg b.i.d., placebo 23%, p=0.038
  proportion of months with adequate relief of overall IBS symptoms: 47%
[4]; IBS-D, moderate or severe pain, 0.5 mg
  urgency: statistically significant reductions
[4]; IBS-D, moderate or severe pain, 0.5 mg, from week 3 to end of treatment
  daily stool frequency: dramatic decrease
[4]; IBS-D, moderate or severe pain, 0.5 mg, second and third months
  bloating: Significant reductions
[4]; IBS-D, moderate or severe pain, 1.0 mg b.i.d., placebo 23%, p=0.039
  proportion of months with adequate relief of overall IBS symptoms: 43%
[4]; IBS-D, moderate or severe pain, 1.0 mg
  urgency: statistically significant reductions
[4]; IBS-D, pain scores ≧2.0, 0.5 mg b.i.d., weeks 1-12
  improvement in the percentage of pain-free days over placebo: ~30%
[4]; IBS-D, 0.5 mg
  results in female versus male IBS-D subjects (adequate relief): highly similar results
[4]; IBS-D, 0.5 mg b.i.d., month 1, placebo 20%, p=0.045
  percentage of monthly responders (adequate relief of pain or discomfort): 48%
[4]; IBS-D, 0.5 mg b.i.d., month 2, placebo 18%, p=0.010
  percentage of monthly responders (adequate relief of pain or discomfort): 52%
[4]; IBS-D, 0.5 mg b.i.d., month 3, placebo 27%, p=0.010
  percentage of monthly responders (adequate relief of pain or discomfort): 50%
[4]; IBS-D, 0.5 mg, every week starting at week 3 and every month
  pain scores: statistically significant improvement
[4]; IBS-D, 0.5 mg, over the 3 month study
  more pain free days compared to placebo: 21 days
[4]; IBS-D, 1.0 mg, every month and six of the twelve weeks
  pain scores: statistically significant improvement
[4]; 0.5 mg b.i.d., placebo 23%, p=0.006
  percent number of months with adequate relief of IBS pain or discomfort: 40%
[4]; 1.0 mg b.i.d., placebo 23%, p=0.005
  percent number of months with adequate relief of IBS pain or discomfort: 40%
[4]; fixed dose, 12 weeks
  tolerability: well tolerated
[5]
  stability of the substance: slightly sensitive to moisture, but stable against heat, aerial oxygen and light

## Cc1[nH]cnc1CN1CCc2c(c3ccccc3n2C)C1=O [LOTRONEX]
IBS patients
  improvement in the percentage of pain-free days: 10%
